The source of these data is patent US20240067651A1 (Biohaven Therapeutics Ltd., priority 2019, published 2024).

Data set [1] can be described thus: Stability in Simulated Gastric Fluid (SGF). The class given is in vitro ADME. Also on record: key: % parent compound remaining relative to 0-minute sample. The essentials: (§1)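 Stability was tested at 37° C in pepsin-supplemented gastric fluid, pH 1.2, and pancreatin-supplemented intestinal fluid, pH 6.8, using 2 μg/mL final compound over 0–60 minutes. Remaining parent was quantified by LC-MS/MS and expressed as a percentage of time zero.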

Data set [2] in a line: Caco-2 Permeability Assay. It counts as in vitro ADME, human. As to conditions: human. An excerpt:
The compounds of the invention may be tested for biological activity as MPO inhibitors by methods known to those skilled in the art. In addition, methods such as, for example, a Caco-2 assay, may be used to test the bioavailability of the compounds of the invention. A description of a Caco-2 permeability assay is as follows:
• The Caco-2 monolayer is widely used across the pharmaceutical industry as an in vitro model of the human small intestinal mucosa to predict the absorption of orally administered drugs.^1-4 • The Caco-2 cell model mimics processes such as transcellular transport, paracellular transport, and some aspects of efflux and active transport. • Readout: Papp (A→B), Papp (B→A), Efflux ratio, % Recovery • Controls: with and without Pgp inhibitor; Atenolol, Propanolol, Taxel-1
The Caco-2 cells are cultured to confluency, trypsinized and seeded onto a filter transwell insert at a density of ^˜32,000 cells/well in DMEM cell culture medium. Cells are grown in a humidified atmosphere of 5% CO2 at 37° C. Following an overnight attachment period (24 h after seeding), the cell medium is replaced with fresh medium in both the apical and basolateral compartments every other day. The cell monolayers are used for transport studies 21 days post seeding after measuring the TEER values ([…]). The apical sides and basolateral sides are washed consecutively with HBSS 2.5% (v/v), HEPES (pH 7.4) or HBSS 2.5% (v/v), HEPES 10% (v/v), and Fetal Bovine Serum (pH 7.4) at 37° C. in an incubator under an atmosphere of 5% CO2.
Donor working solution is prepared by dilution of DMSO stock of test article or positive control with transport media to 10 μM.
For A→B directional transport, the donor working solution (with test article or positive control, with or without Pgp inhibitor) is added to the apical (A) compartment and the transport media as receiver working solution is added to the basolateral (B) compartment. For B→A directional transport, the donor working solution (with positive control or test article, with or without Pgp inhibitor) is added to the basolateral (B) compartment and transport media as receiver working solution is added to the apical (A) compartment.
The cells are incubated in a humidified atmosphere of 5% CO2 at 37° C. for 90 minutes.
At the end of the incubation, samples are taken from both donor and receiver compartments and transferred into 96-well assay plates containing internal standard solution (IS) in each well. After centrifugation, the supernatant solutions are transferred to clean 96 well plates and analyzed by LC-MS/MS. The MS detection is performed using a Sciex API 4000 instrument. Each compound is analyzed by reversed phase HPLC.
The parameters Papp (apparent permeability) and efflux ratio are calculated as follows:
Papp=(dQ/dt)×(1/C0)×(1/A)
Efflux ratio=Papp[B→A]/Papp[A→B]
where dQ/dt is the permeability rate, C0 is the initial concentration in the donor compartment, and A is the surface area of the cell monolayer (0.33 cm^2). The Papp value is a rate measured in cm/s. Calculated Papp is ranked as low (<[…]), moderate (1-10×10^−6 cm/s), and high (>[…]).
Comparing the efflux ratios generated in the presence and absence of a Pgp inhibitor identifies whether the test article is a Pgp substrate.
Recovery is calculated as follows:
% Recovery=(Total compound mass in donor and receiver compartments at the end of the incubation/Initial compound mass in the donor compartment)×100.

Another data set is described as follows: Plasma Stability. The class given is in vitro ADME, human. The method in brief:
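Compounds incubated at 1 μM in fresh human plasma for 1 hour at 37° C, then protein-precipitated with acetonitrile/formic acid containing internal standard. Remaining parent measured by LC-MS/MS in triplicate, expressed as percent of control remaining.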

Data set [3] in a line: Stability in Simulated Intestinal Fluid (SIF). On the set-up: key: % parent compound remaining relative to 0-minute sample. The class given is in vitro ADME. The method in brief:
as §1

The mark [4] stands for this setting: % remaining at 1 h, SGF with pepsin pH 1.2, 2 μg/mL, 37° C.
Where [5] appears, read: Caco-2, pH 7.4, donor 10 μM, 90 minutes, 37° C., direction not given.
[6] abbreviates: % remaining at 1 h, human plasma, 1 μM, 37° C.
Setting [7] is: % remaining at 1 h, SIF with pancreatin pH 6.8, 2 μg/mL, 37° C.
The mark [8] stands for this setting: % remaining at 1 h in simulated gastric fluid.
[9] abbreviates: Caco-2, pH 7.4, Caco-2 monolayer.
The mark [10] stands for this setting: % remaining at 1 h in human plasma.
Setting [11] is: % remaining at 1 h in simulated intestinal fluid.

As a reminder, the Papp is the rate of passage across a membrane or cell layer, normalised by area and donor concentration. With `CC(C)OCCn1c(=S)[nH]c(=O)c2c1ccn2COC(=O)CCNC(=O)[C@@H](NC(=O)OC(C)(C)C)C(C)C` [Example 11, {4-oxo-1-[2-(propan-2-yloxy)-ethyl]-2-sulfanylidene-1H,2H,3H,4H,5H-pyrrolo[3,2-d]pyrimidin-5-yl}methyl3-[(2S)-2-{[(tert-butoxy)carbonyl]amino}-3-methylbutanamido]propanoate], in data set [1] (setting [4]), the SGF is 74%. The same compound displayed a Papp at 90 min, 10 µM in data set [2] (setting [5]) of 1.44 ×10⁻⁶ cm/s. Also, the “human Plasma stability” value in “Plasma Stability” (setting [6]) came to 99%. Besides, the SIF in data set [3] (setting [7]) is 69%.

In the case of `CC(C)OCCn1c(=S)[nH]c(=O)c2c1ccn2COC(=O)CCCCNC(=O)[C@@H](N)C(C)C` [Example 12, Trifluoroacetic acid {4-oxo-1-[2-(propan-2-yloxy)ethyl]-2-sulfanylidene-1H,2H,3H,4H,5H-pyrrolo[3,2-d]pyrimidin-5-yl}methyl 5-[(2S)-2-amino-3-methylbutanamido]pentanoate], the SGF in data set [1] (setting [4]) is 100%. The compound also showed a Papp at 90 min, 10 µM in data set [2] (setting [5]) of 0.4 ×10⁻⁶ cm/s. Moreover, the “human Plasma stability” value in the data set “Plasma Stability” (setting [6]) was found to be 76%. In data set [3] (setting [7]), the SIF is recorded as 94%.

Take `CC(C)OCCn1c(=S)[nH]c(=O)c2c1ccn2COC(=O)CCCCNC(=O)CNC(=O)OC(C)(C)C` [Example 13]: the SGF in data set [1] (setting [8]) was 96% remaining. In data set [2] (setting [9]), this compound displayed a Papp at 90 min, 10 µM of 1.88 ×10⁻⁶ cm/s. In addition, in the data set “Plasma Stability” (setting [10]), the “human Plasma stability” value is 1% remaining. In addition, the SIF in data set [3] (setting [11]) is 94% remaining.

`CC(C)OCCn1c(=S)[nH]c(=O)c2c1ccn2COC(=O)CCNC(=O)[C@@H](N)C(C)C.O=C(O)C(F)(F)F` [Example 14]: the SGF in data set [1] (setting [8]) is listed as 95% remaining. Also, the Papp at 90 min, 10 µM in data set [2] (setting [9]) is < 0.203 ×10⁻⁶ cm/s. The “human Plasma stability” value in “Plasma Stability” (setting [10]) is given as 55% remaining. Moreover, the SIF in data set [3] (setting [11]) is 84% remaining.

With `CC(C)OCCn1c(=S)[nH]c(=O)c2c1ccn2COC(=O)CCCCNC(=O)[C@H](CCc1ccccc1)NC(=O)OC(C)(C)C.O=C(O)C(F)(F)F` [Example 18], the SGF in data set [1] (setting [8]) was 100%. In data set [2] (setting [9]), this compound showed a Papp at 90 min, 10 µM of 7.59 ×10⁻⁶ cm/s. Also, the “human Plasma stability” value in the data set “Plasma Stability” (setting [10]) stood at 66% remaining. In addition, the SIF in data set [3] (setting [11]) is 65% remaining.

Regarding `CC(C)OCCn1c(=S)[nH]c(=O)c2c1ccn2COC(=O)CCNC(=O)[C@H](CCc1ccccc1)NC(=O)OC(C)(C)C.O=C(O)C(F)(F)F` [Example 19], the SGF in data set [1] (setting [8]) is on record as 82% remaining. The apparent permeability (Papp) at 90 min, 10 µM in data set [2] (setting [9]) amounted to 11.7 ×10⁻⁶ cm/s. Moreover, the “human Plasma stability” value in “Plasma Stability” (setting [10]) amounted to 42% remaining. The SIF in data set [3] (setting [11]) is reported as 57% remaining.

In the case of `CSCC[C@H](NC(=O)OCC1c2ccccc2-c2ccccc21)C(=O)NCCCCC(=O)OCn1ccc2c1c(=O)[nH]c(=S)n2CCOC(C)C.O=C(O)C(F)(F)F` [Example 20], in data set [1] (setting [8]), the SGF is recorded as 80% remaining. In data set [2] (setting [9]), the Papp at 90 min, 10 µM is 0.985 ×10⁻⁶ cm/s. Further, the “human Plasma stability” value in “Plasma Stability” (setting [10]) came out at 64% remaining. Also, in data set [3] (setting [11]), the SIF is 76% remaining.

Regarding `CSCC[C@H](NC(=O)OCC1c2ccccc2-c2ccccc21)C(=O)NCCC(=O)OCn1ccc2c1c(=O)[nH]c(=S)n2CCOC(C)C.O=C(O)C(F)(F)F` [Example 21], in data set [1] (setting [8]), the SGF is given as 88% remaining. In addition, the apparent permeability coefficient (Papp) at 90 min, 10 µM in data set [2] (setting [9]) amounted to 5.79 ×10⁻⁶ cm/s. In addition, in the data set “Plasma Stability” (setting [10]), the “human Plasma stability” value is given as 91% remaining. The SIF in data set [3] (setting [11]) is 75% remaining.

For the compound `CC(C)OCCn1c(=S)[nH]c(=O)c2c1ccn2COC(=O)CCCCNC(=O)[C@H](Cc1ccccc1)NC(=O)OCC1c2ccccc2-c2ccccc21.O=C(O)C(F)(F)F` [Example 22], the SGF in data set [1] (setting [8]) was 87% remaining. The Papp at 90 min, 10 µM in data set [2] (setting [9]) worked out at 0.647 ×10⁻⁶ cm/s. The “human Plasma stability” value in “Plasma Stability” (setting [10]) stood at 74% remaining. The SIF in data set [3] (setting [11]) is listed as 90% remaining.

Take `CC(C)OCCn1c(=S)[nH]c(=O)c2c1ccn2COC(=O)CCNC(=O)[C@H](Cc1ccccc1)NC(=O)OCC1c2ccccc2-c2ccccc21.O=C(O)C(F)(F)F` [Example 23]: in data set [1] (setting [8]), the SGF is recorded as 93% remaining. In data set [2] (setting [9]), this compound showed an apparent permeability coefficient (Papp) at 90 min, 10 µM of 1.94 ×10⁻⁶ cm/s. For the same compound, the “human Plasma stability” value in the data set “Plasma Stability” (setting [10]) was found to be 92% remaining. For the same compound, the SIF in data set [3] (setting [11]) was 84% remaining.
